Reference: PubChem BioAssay (NCI)
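96-well plates; 48 h exposure; 5 concentrations. Endpoints by linear interpolation between flanking doses. Not reached: highest tested concentration assigned. GI50: concentration for 50% inhibition of growth. TGI denotes the concentration required for complete inhibition of growth.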

Assays:
Experiment in all cases: NCI-60 cell line screen, 48 h
786-0 renal = tested on: 786-0 renal
A498 renal = tested on: A498 renal
A549 NSCLC = tested on: A549 NSCLC
ACHN renal = tested on: ACHN renal
BT-549 breast = tested on: BT-549 breast
CAKI-1 renal = tested on: CAKI-1 renal
CCRF-CEM leukemia = tested on: CCRF-CEM leukemia
COLO 205 colon = tested on: COLO 205 colon
DU-145 prostate = tested on: DU-145 prostate
HCC-2998 colon = tested on: HCC-2998 colon
HCT-116 colon = tested on: HCT-116 colon
HCT-15 colon = tested on: HCT-15 colon
HL-60(TB) leukemia = tested on: HL-60(TB) leukemia
HOP-62 NSCLC = tested on: HOP-62 NSCLC
HOP-92 NSCLC = tested on: HOP-92 NSCLC
HS 578T breast = tested on: HS 578T breast
HT29 colon = tested on: HT29 colon
IGROV1 ovarian = tested on: IGROV1 ovarian
K-562 leukemia = tested on: K-562 leukemia
KM12 colon = tested on: KM12 colon
LOX IMVI melanoma = tested on: LOX IMVI melanoma
M14 melanoma = tested on: M14 melanoma
MALME-3M melanoma = tested on: MALME-3M melanoma
MCF7 breast = tested on: MCF7 breast
MDA-MB-231 breast = tested on: MDA-MB-231 breast
MDA-MB-435 = tested on: MDA-MB-435
MOLT-4 leukemia = tested on: MOLT-4 leukemia
NCI-H226 lung = tested on: NCI-H226 lung
NCI-H23 lung = tested on: NCI-H23 lung
NCI-H460 lung = tested on: NCI-H460 lung
NCI-H522 lung = tested on: NCI-H522 lung
NCI/ADR-RES ovarian = tested on: NCI/ADR-RES ovarian
OVCAR-3 ovarian = tested on: OVCAR-3 ovarian
OVCAR-4 ovarian = tested on: OVCAR-4 ovarian
OVCAR-5 ovarian = tested on: OVCAR-5 ovarian
OVCAR-8 ovarian = tested on: OVCAR-8 ovarian
PC-3 prostate = tested on: PC-3 prostate
RPMI-8226 leukemia = tested on: RPMI-8226 leukemia
RXF 393 renal = tested on: RXF 393 renal
SF-268 CNS = tested on: SF-268 CNS
SF-295 CNS = tested on: SF-295 CNS
SF-539 CNS = tested on: SF-539 CNS
SK-MEL-2 melanoma = tested on: SK-MEL-2 melanoma
SK-MEL-28 melanoma = tested on: SK-MEL-28 melanoma
SK-MEL-5 melanoma = tested on: SK-MEL-5 melanoma
SK-OV-3 ovarian = tested on: SK-OV-3 ovarian
SN12C renal = tested on: SN12C renal
SNB-19 CNS = tested on: SNB-19 CNS
SNB-75 CNS = tested on: SNB-75 CNS
SR leukemia = tested on: SR leukemia
SW-620 colon = tested on: SW-620 colon
T-47D breast = tested on: T-47D breast
TK-10 renal = tested on: TK-10 renal
U251 CNS = tested on: U251 CNS
UACC-257 melanoma = tested on: UACC-257 melanoma
UACC-62 melanoma = tested on: UACC-62 melanoma
UO-31 renal = tested on: UO-31 renal

O=C1C=CC(=O)N1C1CCCCCCCCCCC1
GI50 (786-0 renal): 16.1 µM | TGI (786-0 renal): 29.7 µM | GI50 (A498 renal): 16.5 µM | TGI (A498 renal): > 93.7 µM | GI50 (A549 NSCLC): 32.8 µM | TGI (A549 NSCLC): > 100 µM | GI50 (ACHN renal): 2.73 µM | TGI (ACHN renal): 7.69 µM | GI50 (BT-549 breast): 11.3 µM | TGI (BT-549 breast): 24.6 µM | GI50 (CAKI-1 renal): 5.95 µM | TGI (CAKI-1 renal): 16.3 µM | GI50 (CCRF-CEM leukemia): 0.939 µM | TGI (CCRF-CEM leukemia): 4.93 µM | GI50 (COLO 205 colon): 2.78 µM | TGI (COLO 205 colon): 8.16 µM | GI50 (DU-145 prostate): 13.9 µM | TGI (DU-145 prostate): 27.2 µM | GI50 (HCC-2998 colon): 28.9 µM | TGI (HCC-2998 colon): > 73.8 µM | GI50 (HCT-116 colon): 2.15 µM | TGI (HCT-116 colon): 4.94 µM | GI50 (HCT-15 colon): 3.72 µM | TGI (HCT-15 colon): 14.9 µM | GI50 (HL-60(TB) leukemia): 5.25 µM | TGI (HL-60(TB) leukemia): 15.9 µM | GI50 (HOP-62 NSCLC): 31.5 µM | TGI (HOP-62 NSCLC): > 100 µM | GI50 (HOP-92 NSCLC): 2.12 µM | TGI (HOP-92 NSCLC): 7.72 µM | GI50 (HS 578T breast): 17.8 µM | TGI (HS 578T breast): > 65.3 µM | GI50 (HT29 colon): 7.86 µM | TGI (HT29 colon): 26.4 µM | GI50 (IGROV1 ovarian): 13.6 µM | TGI (IGROV1 ovarian): > 49.2 µM | GI50 (K-562 leukemia): 2.93 µM | TGI (K-562 leukemia): 12.8 µM | GI50 (KM12 colon): 41.2 µM | TGI (KM12 colon): > 100 µM | GI50 (LOX IMVI melanoma): 2.44 µM | TGI (LOX IMVI melanoma): 6.72 µM | GI50 (M14 melanoma): 10.4 µM | TGI (M14 melanoma): 25.8 µM | GI50 (MALME-3M melanoma): 5.07 µM | TGI (MALME-3M melanoma): 15.8 µM | GI50 (MCF7 breast): 3.58 µM | TGI (MCF7 breast): 16.3 µM | GI50 (MDA-MB-231 breast): 14.5 µM | TGI (MDA-MB-231 breast): 30 µM | GI50 (MDA-MB-435): 13.7 µM | TGI (MDA-MB-435): 28.5 µM | GI50 (MOLT-4 leukemia): 3.28 µM | TGI (MOLT-4 leukemia): 20.1 µM | GI50 (NCI-H226 lung): 9.75 µM | TGI (NCI-H226 lung): 24.3 µM | GI50 (NCI-H23 lung): 19.1 µM | TGI (NCI-H23 lung): 47.5 µM | GI50 (NCI-H460 lung): 81.1 µM | TGI (NCI-H460 lung): > 100 µM | GI50 (NCI-H522 lung): 1.7 µM | TGI (NCI-H522 lung): 3.37 µM | GI50 (NCI/ADR-RES ovarian): 30.6 µM | TGI (NCI/ADR-RES ovarian): > 100 µM | GI50 (OVCAR-3 ovarian): 6.4 µM | TGI (OVCAR-3 ovarian): 16.2 µM | GI50 (OVCAR-4 ovarian): 11.5 µM | TGI (OVCAR-4 ovarian): 24.2 µM | GI50 (OVCAR-5 ovarian): 19.8 µM | TGI (OVCAR-5 ovarian): 48.7 µM | GI50 (OVCAR-8 ovarian): 13.9 µM | TGI (OVCAR-8 ovarian): 27.4 µM | GI50 (PC-3 prostate): 14.2 µM | TGI (PC-3 prostate): 30.9 µM | GI50 (RPMI-8226 leukemia): 4.91 µM | TGI (RPMI-8226 leukemia): 34 µM | GI50 (RXF 393 renal): 4.96 µM | TGI (RXF 393 renal): 17.1 µM | GI50 (SF-268 CNS): 19.2 µM | TGI (SF-268 CNS): 51.8 µM | GI50 (SF-295 CNS): 78.7 µM | TGI (SF-295 CNS): > 100 µM | GI50 (SF-539 CNS): 15.3 µM | TGI (SF-539 CNS): 29.4 µM | GI50 (SK-MEL-2 melanoma): 16.4 µM | TGI (SK-MEL-2 melanoma): 33.8 µM | GI50 (SK-MEL-28 melanoma): 14.5 µM | TGI (SK-MEL-28 melanoma): 28.3 µM | GI50 (SK-MEL-5 melanoma): 16.4 µM | TGI (SK-MEL-5 melanoma): 37 µM | GI50 (SK-OV-3 ovarian): > 65.5 µM | TGI (SK-OV-3 ovarian): > 100 µM | GI50 (SN12C renal): 15.6 µM | TGI (SN12C renal): 33 µM | GI50 (SNB-19 CNS): > 84.6 µM | TGI (SNB-19 CNS): > 100 µM | GI50 (SNB-75 CNS): 12.7 µM | TGI (SNB-75 CNS): > 79.9 µM | GI50 (SR leukemia): 2.23 µM | TGI (SR leukemia): 23.8 µM | GI50 (SW-620 colon): 2.59 µM | TGI (SW-620 colon): 8.14 µM | GI50 (T-47D breast): 3.08 µM | TGI (T-47D breast): 11.3 µM | GI50 (TK-10 renal): 3.35 µM | TGI (TK-10 renal): 11.8 µM | GI50 (U251 CNS): 27 µM | TGI (U251 CNS): > 86.9 µM | GI50 (UACC-257 melanoma): 13 µM | TGI (UACC-257 melanoma): 27.2 µM | GI50 (UACC-62 melanoma): 14.7 µM | TGI (UACC-62 melanoma): 28.5 µM | GI50 (UO-31 renal): 3.42 µM | TGI (UO-31 renal): 14.2 µM
